Experimental data: patent US20240228482A1, “COMPOUNDS, COMPOSITIONS AND METHODS OF TREATING CANCER” (HOTSPOT THERAPEUTICS, INC., priority 2021, published 2024)

target: T1, CBL-B (Homo sapiens, UniProt Q13191); assay: CBL-B TR-FRET IC50 screening (E1/E2 ubiquitination, Biotin-Ubiquitin, Anti GST-Tb donor / Streptavidin-d2 acceptor); type: biochemical; conditions: CBL-B 10 nM final; 11-point titration from 100 uM; binned A-F; read-out: CBL-B TR-FRET activity IC50
T1 construct: GST
T1 sequence (Q13191 whole entry): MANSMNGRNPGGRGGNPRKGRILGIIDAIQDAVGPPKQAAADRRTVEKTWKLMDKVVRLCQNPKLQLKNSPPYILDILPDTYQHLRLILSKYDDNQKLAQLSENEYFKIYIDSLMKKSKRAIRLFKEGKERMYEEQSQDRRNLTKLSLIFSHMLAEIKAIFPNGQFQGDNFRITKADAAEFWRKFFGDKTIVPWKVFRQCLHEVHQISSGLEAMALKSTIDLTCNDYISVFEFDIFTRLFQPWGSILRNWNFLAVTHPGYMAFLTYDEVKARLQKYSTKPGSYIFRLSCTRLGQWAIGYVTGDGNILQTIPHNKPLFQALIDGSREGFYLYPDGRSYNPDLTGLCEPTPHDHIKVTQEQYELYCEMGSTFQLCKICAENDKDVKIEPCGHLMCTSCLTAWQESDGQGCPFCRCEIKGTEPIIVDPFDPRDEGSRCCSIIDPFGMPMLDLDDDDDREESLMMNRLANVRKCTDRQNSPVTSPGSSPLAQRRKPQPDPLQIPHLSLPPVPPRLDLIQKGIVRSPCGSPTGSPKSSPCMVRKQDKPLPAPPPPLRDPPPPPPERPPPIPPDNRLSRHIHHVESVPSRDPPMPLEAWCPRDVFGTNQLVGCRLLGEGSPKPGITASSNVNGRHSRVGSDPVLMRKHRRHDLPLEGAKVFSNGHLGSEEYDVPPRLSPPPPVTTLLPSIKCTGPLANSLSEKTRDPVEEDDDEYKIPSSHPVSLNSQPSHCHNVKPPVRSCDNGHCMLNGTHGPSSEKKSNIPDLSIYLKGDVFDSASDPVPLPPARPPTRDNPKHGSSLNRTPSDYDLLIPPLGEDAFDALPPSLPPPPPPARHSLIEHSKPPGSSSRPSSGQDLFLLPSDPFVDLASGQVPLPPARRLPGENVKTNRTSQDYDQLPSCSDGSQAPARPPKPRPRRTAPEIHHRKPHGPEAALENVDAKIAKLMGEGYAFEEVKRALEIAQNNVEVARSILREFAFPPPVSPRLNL

| IC50 | Compound |
| --- | --- |
| < 100 nM | CN(Cc1cc(C(F)(F)F)c2cn(-c3cccc([C@H](c4nncn4C)C4CCC4)c3)c(=O)n2c1)C1COC1 [Compound 323] |
| < 100 nM | Cn1cnnc1[C@]1(c2cccc(-n3cc4c(C(F)(F)F)cc(CN5CC[C@H](F)C5)cn4c3=O)c2)C[C@@H](C)C1 [Compound 216] |
| > 10000 nM | O=c1n(-c2cccc(C3(Cc4nnco4)COC3)c2)cc2c(C(F)(F)F)cccn12 [Compound 147] |
| > 10000 nM | C[C@H]1CCCN([C@@H](c2cc(C(F)(F)F)c3cn(-c4cccc([C@@H](c5nncn5C)C5CCC5)c4)c(=O)n3c2)C(F)(F)F)C1 (single isomer, unassigned) [Compound 256] |
| 100 to 300 nM | Cc1conc1CC1(c2cccc(-n3cc4c(C(F)(F)F)cc(CN5CCC[C@H](C)C5)cn4c3=O)c2)COC1 [Compound 185] |
| < 100 nM | Cn1cnnc1[C@@H](c1cccc(-n2cc3c(C(F)(F)F)cc(CN4CCS(=O)(=O)CC4)cn3c2=O)c1)C1CCC1 [Compound 378] |
| < 100 nM | C[C@@H]1CN(Cc2cc(C(F)(F)F)c3cn(-c4cccc([C@H](c5nncn5C)C5CCC5)c4)c(=O)n3c2)CCO1 [Compound 244] |
| < 100 nM | CC1CC(c2cccc(-n3cc4c(C(F)(F)F)cc(Br)cn4c3=O)c2)(c2nncn2C)C1 (single isomer, unassigned) [Compound 154] |
| < 100 nM | C[C@@H]1CN(Cc2cc(C(F)(F)F)c3cn(-c4cccc([C@]5(Cc6nncn6C)C[C@H](C#N)C5)c4)c(=O)n3c2)CCC1(F)F (single isomer, unassigned) [Compound 204] |
| > 10000 nM | Cc1scnc1[C@@H](c1cccc(-n2cc3c(C(F)(F)F)cc(CN4CCC[C@H](C)C4)cn3c2=O)c1)C1CCC1 (single isomer, unassigned) [Compound 283] |
| 100 to 300 nM | CC1CCCN(Cc2cc(C(F)(F)F)c3cn(-c4cccc([C@H](c5nncn5C)C5CCC5)c4)c(=O)n3c2)CC1 (some centres unmarked) [Compound 350] |
| 3000 to 10000 nM | Cn1cnnc1[C@@H]1C[C@@H]1c1cccc(-n2cc3c(C(F)(F)F)cccn3c2=O)c1 [Compound 43] |
| 100 to 300 nM | CN1CCCCC1c1cc(C(F)(F)F)c2cn(-c3cccc(C4(Cc5nncn5C)COC4)c3)c(=O)n2c1 (single isomer, unassigned) [Compound 186] |
| < 100 nM | CO[C@H](C)CNCc1cc(C(F)(F)F)c2cn(-c3cccc(C4(Cc5nncn5C)COC4)c3)c(=O)n2c1 [Compound 266] |
| 1000 to 3000 nM | CC(=O)c1cc(C(F)(F)F)c2cn(-c3cccc(C4(Cc5nncn5C)COC4)c3)c(=O)n2c1 [Compound 19] |

same assay, conditions: second part of Table 2 (head 'Patent Cmpd No / Updated Activity'); same CBL-B TR-FRET IC50 bins A-F; read-out: Updated Activity

| IC50 | Compound |
| --- | --- |
| 1000 to 3000 nM | CC(=O)N1CC([C@H](c2cccc(-n3cc4c(C(F)(F)F)cc(CN5CCC[C@H](C)C5)cn4c3=O)c2)c2nncn2C)C1 [Compound 434_P2] |
| 100 to 300 nM | COCCn1ccnc1-c1cc(C(F)(F)F)c2cn(-c3cccc(C4(c5nncn5C)CCC4)c3)c(=O)n2c1 [Compound 611] |
| > 10000 nM | C[C@@H]1CN(Cc2cc(C(F)(F)F)c3cn(-c4cccc([C@@H](c5nncn5C)C5CC5)c4)c(=O)n3c2)CCO1 [Compound 612_P1] |
| < 100 nM | C[C@H]1CCCN(Cc2cc(C(F)(F)F)c3cn(-c4cc(F)cc([C@@H](c5nncn5C)C5COC5)c4)c(=O)n3c2)C1 (single isomer, unassigned) [Compound 477] |
| < 100 nM | COC(=O)CN(C)Cc1cc(C(F)(F)F)c2cn(-c3cccc([C@H](c4nncn4C)C4CCC4)c3)c(=O)n2c1 [Compound 521] |
| 1000 to 3000 nM | C[C@H]1CCCN(Cc2cc(C(F)(F)F)c3cn(-c4cc([C@H](c5nncn5C)C5CCC5)ccn4)c(=O)n3c2)C1 [Compound 627_P2] |
| < 100 nM | Cn1cnnc1[C@@H](c1cccc(-n2cc3c(C(F)(F)F)cc(CN4CCC(C)(F)CC4)cn3c2=O)c1)C1COC1 [Compound 413] |
| < 100 nM | [2H]C([2H])(c1cc(C(F)(F)F)c2cn(-c3cccc([C@H](c4nncn4C)C4CCC4)c3)c(=O)n2c1)N1CCO[C@H](C)C1 [Compound 527] |
